Laboratory results from patent US12668584B2, “Heterocyclic compounds as kinase inhibitors for therapeutic uses” (National Health Research Institutes, priority 2019, dated 2026).

Experiments:
PDGFR B = PDGFR B (Homo sapiens, UniProt P09619); test: HotSpot kinase profiling, PDGFR B; type: biochemical; conditions: HotSpot assay, 10 μM ATP; IC50 of kinase divided by that of CSF1R
Description: (§1) A study was conducted to determine kinase selectivity of compounds 27 and 67. More specifically, each compound was tested for inhibitory activity of CSF1R kinase, as compared to that of seven other kinases, i.e., Aurora A, Aurora B, tyrosine-protein kinase Kit (c-Kit), fms-like tyrosine kinase 3 (FLT3), platelet-derived growth factor receptor (PDGFR) A, PDGFR B, and discoidin domain receptor tyrosine kinase 1 (DDR1).
(§2) In vitro profiling of the kinase panel was performed at Reaction Biology Corporation (www.reactionbiology.com, Malvern, PA) using the “HotSpot” assay platform. Briefly, specific kinase/substrate pairs along with required cofactors were prepared in a reaction buffer containing 20 mM Hepes pH 7.5, 10 mM MgCl2, 1 mM EGTA, 0.02% Brij35, 0.02 mg/ml BSA, 0.1 mM NA3VO4, 2 mM DTT, and 1% DMSO. Compound 27 or 67 was added. 20 minutes later, a mixture of ATP (Sigma, St. Louis MO) and ^33P ATP (Perkin Elmer, Waltham MA) was added to the resulting reaction solution to give a final concentration of 10 μM. The reaction was carried out at room temperature for 120 min., followed by spotting the reaction solution onto P81 ion exchange filter paper (Whatman Inc., Piscataway, NJ). Unbound phosphate was removed by extensive washing filters in 0.75% phosphoric acid. […] Selectivity, expressed as an IC50 ratio, was determined by dividing the IC50 value of a kinase, e.g., Aurora A, by that of CSF1R.

[1] = target: T1, fms-like tyrosine kinase 3 (FLT3) (Homo sapiens, UniProt P36888); test: HotSpot kinase profiling, FLT3; type: biochemical; conditions: HotSpot assay, 10 μM ATP; IC50 of kinase divided by that of CSF1R
T1 sequence (P36888 27-993): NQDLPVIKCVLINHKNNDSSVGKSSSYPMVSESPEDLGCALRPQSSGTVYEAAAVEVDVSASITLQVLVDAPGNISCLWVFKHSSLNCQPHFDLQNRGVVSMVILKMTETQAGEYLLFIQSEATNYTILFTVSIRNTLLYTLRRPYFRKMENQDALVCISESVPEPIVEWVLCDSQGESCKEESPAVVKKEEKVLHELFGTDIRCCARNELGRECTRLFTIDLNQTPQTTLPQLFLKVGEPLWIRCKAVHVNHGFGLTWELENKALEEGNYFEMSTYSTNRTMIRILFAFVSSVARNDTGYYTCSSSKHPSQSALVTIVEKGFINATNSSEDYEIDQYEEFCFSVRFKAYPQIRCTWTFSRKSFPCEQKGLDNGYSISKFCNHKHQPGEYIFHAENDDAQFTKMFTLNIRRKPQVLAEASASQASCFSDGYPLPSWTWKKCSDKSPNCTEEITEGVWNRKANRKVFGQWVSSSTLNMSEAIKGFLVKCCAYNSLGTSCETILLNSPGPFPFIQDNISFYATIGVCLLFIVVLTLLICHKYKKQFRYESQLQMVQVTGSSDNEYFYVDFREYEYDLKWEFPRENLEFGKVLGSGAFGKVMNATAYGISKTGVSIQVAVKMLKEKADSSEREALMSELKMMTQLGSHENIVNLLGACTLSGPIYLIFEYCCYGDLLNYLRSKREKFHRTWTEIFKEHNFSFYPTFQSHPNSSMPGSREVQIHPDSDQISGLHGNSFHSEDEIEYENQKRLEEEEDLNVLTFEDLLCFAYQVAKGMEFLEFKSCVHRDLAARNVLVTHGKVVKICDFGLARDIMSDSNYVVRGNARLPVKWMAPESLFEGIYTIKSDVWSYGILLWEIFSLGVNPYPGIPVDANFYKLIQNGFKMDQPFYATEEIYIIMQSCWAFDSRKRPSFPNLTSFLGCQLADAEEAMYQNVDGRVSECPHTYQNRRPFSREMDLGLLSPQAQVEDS
Description: as §1, §2

M-NFS-60 cells = test: MTS cell viability assay, M-NFS-60; type: cell-based; conditions: 72 h, read-out: Cellular Proliferation Assay M-NFS-60 (nM) GI50
Procedure, shortened: (§3)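 Cells seeded 16 h beforehand (10000 M-NFS-60 or 8000 BaF3-CSF1R-1600 per well), then exposed 72 h to test compounds in RPMI1640 with 10% FBS at 37 °C. Viability read by MTS absorbance at 490 nm; GI50 is the concentration giving 50% viability reduction versus DMSO vehicle.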

[2] = target: platelet-derived growth factor receptor (PDGFR) A (Homo sapiens, UniProt P16234); test: HotSpot kinase profiling, PDGFR A; type: biochemical; conditions: HotSpot assay, 10 μM ATP; IC50 of kinase divided by that of CSF1R
Description: as §1, §2

[3] = test system: BaF3-CSF1R-1600 cells (express ETV6-CSF1R fusion protein); test: MTS cell viability assay, BaF3-CSF1R-1600; type: cell-based; conditions: 72 h, read-out: Cellular Proliferation Assay BaF3-CSF1R GI50
Procedure, shortened: as §3

Sequence of platelet-derived growth factor receptor (PDGFR) A (P16234 24-1089): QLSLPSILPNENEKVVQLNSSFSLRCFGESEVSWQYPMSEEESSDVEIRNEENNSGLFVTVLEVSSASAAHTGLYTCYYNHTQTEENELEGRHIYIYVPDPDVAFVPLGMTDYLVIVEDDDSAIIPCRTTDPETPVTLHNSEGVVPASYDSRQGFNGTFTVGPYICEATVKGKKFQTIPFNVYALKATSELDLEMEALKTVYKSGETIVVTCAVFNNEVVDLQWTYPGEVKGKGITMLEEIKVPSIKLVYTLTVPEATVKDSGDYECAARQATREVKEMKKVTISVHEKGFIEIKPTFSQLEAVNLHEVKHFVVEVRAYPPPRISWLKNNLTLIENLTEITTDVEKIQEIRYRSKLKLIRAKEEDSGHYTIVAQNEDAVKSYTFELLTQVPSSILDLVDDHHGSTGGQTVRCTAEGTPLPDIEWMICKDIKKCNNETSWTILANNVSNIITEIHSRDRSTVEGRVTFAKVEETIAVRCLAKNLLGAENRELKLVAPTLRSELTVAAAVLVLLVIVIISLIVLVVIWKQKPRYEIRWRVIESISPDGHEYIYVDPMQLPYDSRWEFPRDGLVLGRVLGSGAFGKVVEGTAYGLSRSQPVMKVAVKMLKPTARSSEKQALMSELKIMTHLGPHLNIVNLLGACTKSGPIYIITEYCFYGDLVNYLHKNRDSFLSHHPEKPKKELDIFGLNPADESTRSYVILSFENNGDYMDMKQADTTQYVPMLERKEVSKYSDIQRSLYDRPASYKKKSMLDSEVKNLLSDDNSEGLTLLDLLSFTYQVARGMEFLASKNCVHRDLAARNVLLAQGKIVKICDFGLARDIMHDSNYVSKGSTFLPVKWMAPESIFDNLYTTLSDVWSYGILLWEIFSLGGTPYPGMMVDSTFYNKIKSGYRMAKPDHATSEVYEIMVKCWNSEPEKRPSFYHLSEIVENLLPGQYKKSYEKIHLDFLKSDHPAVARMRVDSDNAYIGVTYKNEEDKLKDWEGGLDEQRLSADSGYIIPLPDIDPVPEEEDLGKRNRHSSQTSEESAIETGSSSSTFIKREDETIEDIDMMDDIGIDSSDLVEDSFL
Sequence of PDGFR B (P09619 33-1106): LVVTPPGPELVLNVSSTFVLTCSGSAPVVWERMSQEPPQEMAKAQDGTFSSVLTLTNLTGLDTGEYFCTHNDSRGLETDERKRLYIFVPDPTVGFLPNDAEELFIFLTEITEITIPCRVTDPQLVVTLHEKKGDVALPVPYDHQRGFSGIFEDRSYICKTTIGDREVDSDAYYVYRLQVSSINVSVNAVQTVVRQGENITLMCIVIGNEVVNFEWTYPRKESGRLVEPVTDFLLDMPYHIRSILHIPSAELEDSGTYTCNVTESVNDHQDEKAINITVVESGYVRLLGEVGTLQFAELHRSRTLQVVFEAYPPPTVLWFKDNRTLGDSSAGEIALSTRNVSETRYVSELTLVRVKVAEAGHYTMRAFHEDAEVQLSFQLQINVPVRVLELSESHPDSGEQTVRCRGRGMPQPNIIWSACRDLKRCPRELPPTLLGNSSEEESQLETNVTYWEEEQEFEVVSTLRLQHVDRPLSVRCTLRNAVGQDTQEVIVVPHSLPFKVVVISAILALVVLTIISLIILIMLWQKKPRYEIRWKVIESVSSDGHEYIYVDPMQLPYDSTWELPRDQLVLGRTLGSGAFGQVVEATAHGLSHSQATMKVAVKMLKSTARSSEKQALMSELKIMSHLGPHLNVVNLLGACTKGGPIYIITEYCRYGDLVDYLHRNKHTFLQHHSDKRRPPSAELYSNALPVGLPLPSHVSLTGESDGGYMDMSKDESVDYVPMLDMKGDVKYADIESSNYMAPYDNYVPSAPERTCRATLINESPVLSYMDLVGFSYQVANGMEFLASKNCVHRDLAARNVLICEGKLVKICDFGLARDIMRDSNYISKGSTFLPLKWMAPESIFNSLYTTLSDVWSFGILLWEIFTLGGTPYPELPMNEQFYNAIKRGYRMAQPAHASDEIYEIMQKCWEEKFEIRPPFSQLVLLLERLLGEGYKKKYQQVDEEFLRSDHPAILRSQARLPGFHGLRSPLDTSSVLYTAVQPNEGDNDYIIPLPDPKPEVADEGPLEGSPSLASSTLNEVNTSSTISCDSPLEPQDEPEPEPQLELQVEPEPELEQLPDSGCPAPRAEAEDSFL

Compound | IC50 ratio PDGFR B / CSF1R (PDGFR B) | IC50 ratio FLT3 / CSF1R [1] | GI50 (M-NFS-60 cells) [nM] | IC50 ratio PDGFR A / CSF1R [2] | GI50 [3] [nM]
CN(C)c1ccc2c(Oc3ccc(NC(=O)NCc4ccc(C(F)(F)F)nc4)cc3)ncnc2c1 [Compound 27, 1-(4-((7-(dimethylamino)quinazolin-4-yl)oxy)phenyl)-3-((6-(trifluoromethyl)pyridin-3-yl)methyl)urea] | ++ (++: 100 > IC50 ratio > 10) | +++ (+++: 1000 > IC50 ratio > 100) | 20 to 100 | ++ (++: 100 > IC50 ratio > 10) | 20 to 100
CN(C)c1ccc2c(Oc3ccc4c(ccn4C(=O)NCc4ccc(C(F)(F)F)nc4)c3)ncnc2c1 [Compound 67, 5-((7-(dimethylamino)quinazolin-4-yl)oxy)-N-((6-(trifluoromethyl)pyridin-3-yl)methyl)-1H-indole-1-carboxamide] | +++ (+++: 1000 > IC50 ratio > 100) | +++ (+++: 1000 > IC50 ratio > 100) | 100 to 1000 | ++ (++: 100 > IC50 ratio > 10) | 20 to 100
